In patent US20160320414A1, “Assay for Detection of Transient Intracellular CA2+” (Rajiv Gandhi Centre for Biotechnology, priority 2007, published 2016):

Experiments:
Type in all cases: cell-based
[1] = molecular target: T1, AMPA-type glutamate receptor GluR4 (Rattus norvegicus, UniProt P19493); assay: GluR4 receptor activity assay (GFP-CaMKII translocation to MLS-NR2B)
T1 construct: expressed in transfected cells; host or cells: HEK-293
Experimental: HEK-293 cells were cotransfected with GluR4 (pRK5-GluR4, about 0.33 μg/well), MLS-NR2B (pSGH-MLS-NR2B, about 0.33 μg/well) and GFP-CaMKII (pEGFP-CaMKII, about 0.1 μg/well) using lipofectamine reagent. During growth, the medium was supplemented with 50 μM CNQX (inhibitor of AMPA receptor). After 48 hours, the transfected cells were subjected to GluR4 activity assay. The growth medium was removed and the cells were washed twice with Ca^2+ and Mg free HBSS containing 2 mM HEPES and 400 μM EGTA. The GluR4 receptor was activated with HBSS solution containing 10 μM glutamate with or without 2 mM Ca^2+ for about 5 minutes. The inhibitor, CNQX (50 μM), when used, was preincubated for 3 minutes with cells in Ca^2+ and Mg^2+-free HBSS followed by activation using the components as described above with 50 μM CNQX. Cells were then fixed and were mounted onto glass slides.

[2] = molecular target: T2, NMDA receptor formed of NR1 and NR2B subunits (Rattus norvegicus, UniProt P35439+Q00960); assay: NMDA receptor activity assay (GFP-α-CaMKII translocation signal); details: HEK-293 cells transfected with NR1, NR2B and GFP-α-CaMKII; for Ca2+ influx / translocation of GFP-α-CaMKII to NR2B upon receptor activation: glutamate 10 μM and glycine 2 μM with 2 mM CaCl2, about 5 minutes, no signal without extracellular Ca2+
T2 construct: expressed in transfected cells; host or cells: HEK-293
T2 sequence (Q00960 27-1482, other chains not shown): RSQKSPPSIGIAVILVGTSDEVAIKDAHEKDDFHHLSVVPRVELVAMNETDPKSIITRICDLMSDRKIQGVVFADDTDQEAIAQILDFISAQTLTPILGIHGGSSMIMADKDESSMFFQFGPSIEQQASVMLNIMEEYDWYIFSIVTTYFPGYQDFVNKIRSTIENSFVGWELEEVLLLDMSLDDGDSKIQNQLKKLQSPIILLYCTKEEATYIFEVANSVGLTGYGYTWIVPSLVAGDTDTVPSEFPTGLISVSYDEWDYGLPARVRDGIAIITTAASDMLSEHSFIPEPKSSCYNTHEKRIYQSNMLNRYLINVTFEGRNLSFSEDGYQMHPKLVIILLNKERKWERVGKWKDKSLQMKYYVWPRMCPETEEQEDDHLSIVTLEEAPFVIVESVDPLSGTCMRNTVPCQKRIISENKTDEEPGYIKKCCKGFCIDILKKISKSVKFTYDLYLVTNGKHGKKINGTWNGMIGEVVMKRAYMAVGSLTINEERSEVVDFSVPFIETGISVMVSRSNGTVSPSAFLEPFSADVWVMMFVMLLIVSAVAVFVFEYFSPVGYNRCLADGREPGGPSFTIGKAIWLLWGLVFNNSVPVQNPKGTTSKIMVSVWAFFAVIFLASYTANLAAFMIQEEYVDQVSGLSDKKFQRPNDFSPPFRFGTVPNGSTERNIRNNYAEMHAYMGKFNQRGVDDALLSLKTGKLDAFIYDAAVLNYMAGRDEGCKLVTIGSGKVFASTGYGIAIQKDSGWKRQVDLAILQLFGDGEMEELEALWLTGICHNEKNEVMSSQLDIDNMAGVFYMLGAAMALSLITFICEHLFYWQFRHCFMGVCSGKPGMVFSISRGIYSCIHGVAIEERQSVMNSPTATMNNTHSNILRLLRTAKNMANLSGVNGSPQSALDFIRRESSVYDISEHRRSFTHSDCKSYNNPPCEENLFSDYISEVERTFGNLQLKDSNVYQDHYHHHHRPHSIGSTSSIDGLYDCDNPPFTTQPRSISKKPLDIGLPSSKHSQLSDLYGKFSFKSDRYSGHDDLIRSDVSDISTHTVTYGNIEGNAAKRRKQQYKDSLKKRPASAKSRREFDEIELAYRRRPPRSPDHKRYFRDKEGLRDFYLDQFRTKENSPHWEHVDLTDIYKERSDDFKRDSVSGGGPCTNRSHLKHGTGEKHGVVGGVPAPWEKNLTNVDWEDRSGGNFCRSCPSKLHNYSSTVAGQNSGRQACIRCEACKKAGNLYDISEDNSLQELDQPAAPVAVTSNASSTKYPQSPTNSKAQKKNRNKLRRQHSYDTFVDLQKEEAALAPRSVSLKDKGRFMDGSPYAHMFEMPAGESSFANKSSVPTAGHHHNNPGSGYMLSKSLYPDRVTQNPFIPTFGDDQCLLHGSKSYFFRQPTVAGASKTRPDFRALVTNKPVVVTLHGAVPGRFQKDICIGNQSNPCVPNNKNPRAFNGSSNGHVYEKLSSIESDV

[3] = molecular target: T3, vanilloid receptor (TRPV1) (Rattus norvegicus, UniProt O35433); assay: TRPV1 receptor activity assay (GFP-CaMKII translocation to MLS-NR2B)
T3 construct: expressed in transfected cells; host or cells: HEK-293
T3 sequence (O35433 whole entry): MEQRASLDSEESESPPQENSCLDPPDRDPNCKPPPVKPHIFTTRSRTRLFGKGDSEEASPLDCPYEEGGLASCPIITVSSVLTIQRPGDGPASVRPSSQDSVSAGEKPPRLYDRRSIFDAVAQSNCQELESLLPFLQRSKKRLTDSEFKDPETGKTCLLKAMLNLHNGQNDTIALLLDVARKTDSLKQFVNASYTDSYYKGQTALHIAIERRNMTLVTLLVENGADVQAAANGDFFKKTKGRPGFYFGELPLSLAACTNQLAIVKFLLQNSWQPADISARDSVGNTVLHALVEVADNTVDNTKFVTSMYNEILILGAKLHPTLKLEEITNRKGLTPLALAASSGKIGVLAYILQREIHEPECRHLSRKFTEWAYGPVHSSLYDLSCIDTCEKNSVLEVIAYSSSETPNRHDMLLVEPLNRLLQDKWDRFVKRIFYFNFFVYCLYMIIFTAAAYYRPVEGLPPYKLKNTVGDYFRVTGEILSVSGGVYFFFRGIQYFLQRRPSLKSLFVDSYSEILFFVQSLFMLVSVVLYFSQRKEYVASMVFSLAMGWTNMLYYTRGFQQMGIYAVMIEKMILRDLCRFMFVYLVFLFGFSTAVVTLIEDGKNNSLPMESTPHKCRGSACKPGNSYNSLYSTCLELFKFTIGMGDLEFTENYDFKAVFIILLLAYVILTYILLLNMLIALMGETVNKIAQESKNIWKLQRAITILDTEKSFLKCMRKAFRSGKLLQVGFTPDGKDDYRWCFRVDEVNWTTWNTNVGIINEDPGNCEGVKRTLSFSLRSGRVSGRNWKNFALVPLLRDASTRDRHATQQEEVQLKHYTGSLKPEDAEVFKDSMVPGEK

[4] = tested on: MLS-NR2B; assay: Ionomycin-mediated Ca2+-influx, cell count of cells with GFP-clustering signal; details: HEK-293 cells with MLS-NR2B
Experimental: For transfection, 1.5×10^4 HEK-293 cells were seeded on sterile 12 mm cover slips in 24 well plates (Nunc). After 24 hrs, the cells were cotransfected with plasmid constructs encoding GFP-α-CaMKII (0.1 μg/well) and either of MLS-NR2A or MLS-NR2B (0.25 μg/well), or pRK-NR2A or pRK-NR2B (along with pRc-NR1 for expression of functional NMDA receptor) using Lipofectamine reagent. About 48 hrs following transfection, cells were washed with Hank's balanced salt solution (HBSS) containing 20 mM HEPES and 1.4 mM EGTA. The cells were then incubated with 15 μM ionomycin in the same buffer for 10 min. Subsequently the cells were incubated in the same buffer containing 2 mM CaCl2 and 3 μM ionomycin. Cells were fixed with 3.7% paraformaldehyde in PBS (Phosphate-buffered saline, 10 mM disodium hydrogen phosphate, 1.8 mM potassium dihydrogen orthophosphate, 140 mM sodium chloride, 2.7 mM potassium chloride, pH adjusted to 7.4) at different time points after addition of calcium, mounted with mountant containing DABCO (antifade) and were observed through either a simple fluorescence microscope or a confocal fluorescence microscope (TCS -SP2-AOBS from Leica).
Appearance of perinuclear granules due to mitochondrial localization of GFP-α-CaMKII is taken as the signal for binding between GFP-α-CaMKII and MLS-NR2B. […]

T1 sequence (P19493 22-902 limits assumed): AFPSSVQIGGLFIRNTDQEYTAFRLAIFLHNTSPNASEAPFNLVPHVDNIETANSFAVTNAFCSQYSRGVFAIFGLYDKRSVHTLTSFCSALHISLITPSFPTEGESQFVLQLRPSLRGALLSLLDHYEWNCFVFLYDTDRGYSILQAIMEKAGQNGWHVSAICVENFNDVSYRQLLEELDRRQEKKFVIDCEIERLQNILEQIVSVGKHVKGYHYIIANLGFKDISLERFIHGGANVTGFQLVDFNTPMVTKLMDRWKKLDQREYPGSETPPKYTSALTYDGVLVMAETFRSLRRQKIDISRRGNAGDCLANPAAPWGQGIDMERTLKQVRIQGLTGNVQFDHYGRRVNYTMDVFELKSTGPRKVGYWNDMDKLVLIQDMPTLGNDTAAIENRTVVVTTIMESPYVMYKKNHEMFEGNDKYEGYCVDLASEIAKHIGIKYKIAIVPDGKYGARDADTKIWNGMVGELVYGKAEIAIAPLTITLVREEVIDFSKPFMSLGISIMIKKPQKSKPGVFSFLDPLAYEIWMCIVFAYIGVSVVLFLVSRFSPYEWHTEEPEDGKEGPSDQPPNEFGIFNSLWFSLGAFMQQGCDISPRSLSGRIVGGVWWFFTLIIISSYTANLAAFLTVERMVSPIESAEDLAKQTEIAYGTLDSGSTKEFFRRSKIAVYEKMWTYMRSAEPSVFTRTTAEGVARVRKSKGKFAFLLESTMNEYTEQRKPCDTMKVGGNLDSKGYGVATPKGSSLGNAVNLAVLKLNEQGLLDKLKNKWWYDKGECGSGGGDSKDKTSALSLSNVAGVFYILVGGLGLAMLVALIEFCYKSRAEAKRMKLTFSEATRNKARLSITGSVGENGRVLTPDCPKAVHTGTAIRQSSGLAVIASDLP

Question: Which “Generation of the signal in presence of specific inhibitor” value ([1]; CNQX 50 μM, preincubated 3 minutes, then glutamate activation (FIG. 11)) does the source give for `N#Cc1cc2[nH]c(=O)c(=O)[nH]c2cc1[N+](=O)[O-]` [CNQX] here?
Answer: The value was “could be blocked”.

Question: For `C[C@]12N[C@H](Cc3ccccc31)c1ccccc12` [MK-801], which “Signal generation in presence of NMDA receptor specific inhibitor” value ([2]; activated with glutamate and glycine, 1 mM AP-5 or 10 μM MK-801) is on record?
Answer: Its value is “blocked”.

Question: How did the “Green punctae as signal for Ca2+-channel activity of TRPV1 upon activation” value ([3]; HEK-293 cells cotransfected with TRPV1, GFP-CaMKII and MLS-NR2B, capsaicin 3 μM or 10 nM with 2 mM Ca2+, 5 minutes) turn out when `COc1cc(CNC(=O)CCCC/C=C/C(C)C)ccc1O` [capsaicin] was run?
Answer: The value was “developed green punctae”.

Question: Which “Signal generation due to activation of TRPV1 in presence of inhibitor” value ([3]; capsazepine 50 μM, preincubated 3 minutes, then capsaicin activation with Ca2+ (FIG. 10)) does the source give for `Oc1cc2c(cc1O)CN(C(=S)NCCc1ccc(Cl)cc1)CCC2` [capsazepine] here?
Answer: Its value is “could be inhibited”.

Question: What does the source list for `N[C@@H](CCC(=O)O)C(=O)O` [glutamate]?
Answer: Ca2+ influx / translocation of GFP-α-CaMKII to NR2B upon receptor activation [2]: caused influx of Ca^2+; Green punctae (translocation of GFP-CaMKII to MLS-NR2B) upon receptor activation ([1]; HEK-293 cells transfected with GluR4, GFP-CaMKII and MLS-NR2B, 10 μM glutamate with 2 mM Ca2+, about 5 minutes): caused the formation of green punctae

Question: Which “Ca2+ influx / translocation of GFP-α-CaMKII to NR2B upon receptor activation” value [2] does the source give for `NCC(=O)O` [glycine] here?
Answer: Its value is “caused influx of Ca^2+”.

Question: Which results are given for “T286D-CaMKII: T286D mutant form of the GFP fusion of α-CaMKII used as Ca2+ sensor”?
Answer: Cell count (percentage of green cells with binding signal) relative to wild-type GFP-α-CaMKII ([4]; ionomycin-mediated Ca2+ influx (FIG. 5)): increased (more than two fold) cell count; Lowest extracellular [Ca2+] giving response ([4]; ionomycin-mediated Ca2+ influx, different extracellular [Ca2+] (FIG. 6)): 2 nM
